The source made the active and inactive calls. How the calls were made is not given here.
System: Saccharomyces cerevisiae lifespan shortening, growth inhibition
Assay: Saccharomyces cerevisiae growth inhibition potency – dose response (AID 849);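 further: yeast growth read as optical density after two days at 30 degrees C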

| Structure (SMILES) | IC50 |
| --- | --- |
| CCc1ccc2c(c1)C1(NN=C(c3ccc(C)cc3)S1)C(=O)N2 (stereo not given) | 23.8 µM |
| C=CCNC(=S)N/N=C(\C)c1ccccn1 | 17.6 µM |
| CCC(C)N1CC23C=CC(O2)C(C(=O)OC)C3C1=O (stereo not given) | > 100 µM (inactive) |
| COc1cccc(C(=O)O/N=C(\N)Cc2ccc(Cl)cc2)c1 | 4.09 µM |
| CCn1c(=O)c(C(=O)Nn2c(C)nc3ccccc3c2=O)c(O)c2ccccc21 | 15.5 µM |
| CCCCS(=O)(=O)/C=C\C=C/S(=O)(=O)CCCC | > 100 µM (inactive) |
| O=C1CCCC/C1=N\Nc1ccc(OCc2ccccc2)cc1 | 13.3 µM |
| CCCn1c(CNc2ccccc2O)nc2ccccc21 | > 100 µM (inactive) |
| O=C(Nc1nnc(C2CC2)s1)c1ccccn1 | 42.6 µM |
| O=C(CSC1=NS(=O)(=O)c2ccccc21)Nc1ccccc1 | > 100 µM (inactive) |
| Cc1nnc(NC(=O)CSc2nnc(Cc3cccn3C)n2-c2ccccc2)s1 | > 100 µM (inactive) |
| CC(C)N=c1scc(-c2ccco2)n1/N=C/c1ccc(O)c(O)c1 | 49.1 µM |
| O=C1CC(N2CCN(c3nc4ccccc4s3)CC2)C(=O)N1Cc1cccs1 (stereo not given) | > 100 µM (inactive) |
| Cc1ccc(O)c(-c2cc(-c3ccccc3C)[nH]n2)c1 | 24.3 µM |
| Cc1nc2ccccc2c2nc3ccccc3n12 | 5.3 µM |
| Cc1cccc(C(=O)O/N=C/c2c(N3CCOCC3)n(C)c3ccccc23)c1 | 35.3 µM |
| Cc1cccc(CSc2cccc3cccnc23)c1 | 33.1 µM |
| O=[N+]([O-])c1ccc(N/N=C/c2ccc[nH]2)cc1 | > 100 µM (inactive) |
| COc1cc(/C=N/N(C)c2ccccc2)cc(Cl)c1O | > 100 µM (inactive) |
| OCc1ccc(O)c2ncccc12 | 32.2 µM |
| Cc1cccc(C(=O)Oc2csc(=S)n2C(=O)c2cccc(C)c2)c1 | > 100 µM (inactive) |
| O=C1C(=C2CCCCC2)SC(=S)N1Cc1ccco1 | > 100 µM (inactive) |
| CC1CCN(c2nc(/C=C/c3ccccc3)nc3ccccc23)CC1 | 24.7 µM |
| CCOc1cccc(-c2nnc3n2N=C(c2cc(OC)ccc2OC)CS3)c1 | > 100 µM (inactive) |

| Structure (SMILES) | IC50 |
| --- | --- |
| COc1cc(/C=C2/C(=O)ON=C2c2ccccc2)ccc1O | 8.49 µM |
| COc1ccc(N/N=C(\C#N)C(N)=O)cc1 | > 100 µM (inactive) |
| COc1ccc(C(=O)N/N=C/c2sc3ccccc3c2O)cc1 | > 100 µM (inactive) |
| Cc1cccc(OCCCCc2c(C)n[nH]c2C)c1C | 38.1 µM |
| Cc1ccc(N/N=C/c2cccnc2)cc1 | 39.6 µM |
| COc1ccc(NC(=O)C2CCCN2S(=O)(=O)c2cccc3cccnc23)c(OC)c1 (stereo not given) | 40.5 µM |
| Cc1cc(C(=O)COC(=O)c2ccc[nH]c2=O)c(C)n1-c1ccc(F)cc1 | 43 µM |
| CC(C)(C)n1nc(-c2ccc(Cl)cc2)c2c(N)ncnc21 | 20.7 µM |
| Cc1nc2ccc(C(=O)O)cc2[nH]1 | > 100 µM (inactive) |
| Cc1cccc(/C(N)=N/OC(=O)c2ccc(F)cc2)c1 | 23.8 µM |
| COc1ccccc1C(=O)NNC(=S)NC(=O)c1ccco1 | > 100 µM (inactive) |
| Cc1ccc(/C=C/C(=O)c2ccccc(=O)c2O)cc1C | 5.31 µM |
| Cc1c2cc(O)c(=O)cc-2oc2cc(O)c(O)cc12 | 28.1 µM |
| CCCCN(CCCC)C(=S)N/N=C/c1c(C)[nH]n(-c2ccccc2)c1=O | 38.9 µM |
| CC1CCC2(CC1)NC(=S)N(c1ccccc1)N2 (stereo not given) | 23.6 µM |
| Cc1nn2c(-c3ccco3)nnc2c2ccccc12 | 26.5 µM |
| Nc1nc2sc3c(c2c(=O)s1)CCCC3 | > 100 µM (inactive) |
| O=C1OCC(CO)(CO)N=C1NNc1ccccc1Cl | 6.45 µM |
| NC(=O)c1ccc(N=Cc2ccc([N+](=O)[O-])s2)cc1 | 7.91 µM |
| O=Nc1c(O)n(Cc2ccc(Cl)c(Cl)c2)c2ccccc12 | > 100 µM (inactive) |
| O=C(CC(O)(C(F)(F)F)C(F)(F)F)Nc1ccc(Cl)c(Cl)c1 | 12 µM |
| CCOC(=O)c1cnc(-n2nc(C)cc2C)nc1NC1CCCCC1 | 20 µM |
| COc1cccc(/C=N/N2C(=O)CSC2=S)c1O | > 100 µM (inactive) |
| CC(=O)n1cc(C(C[N+](=O)[O-])SCCN)c2ccccc21 (stereo not given) | 8.5 µM |

| Structure (SMILES) | IC50 |
| --- | --- |
| CCCCCC1CCC(C(=O)O)CC1 (stereo not given) | > 100 µM (inactive) |
| CCCC1COC(Cn2cncn2)(c2ccc(Cl)cc2Cl)O1 (stereo not given) | 0.274 µM |
| Cc1cc(C)nc(N/N=C/C2=C(N3CCOCC3)C(=C\c3ccc(Cl)cc3)/CC2)n1 | > 100 µM (inactive) |
| Fc1ccc(-c2ccc(-c3nn4c(-c5ccco5)nnc4s3)o2)cc1 | > 100 µM (inactive) |
| CCC1CCCCN1C(=O)CSc1nnc(-c2ccc(OC)cc2)o1 (stereo not given) | > 100 µM (inactive) |
| Cc1nc2c(c(C)c1C#N)C(=O)c1ccccc1-2 | 38.8 µM |
| O=C(Nc1nc(-c2ccccn2)cs1)c1ncc(Cl)c(Cl)c1Cl | > 100 µM (inactive) |
| NNC(=O)c1ccc(COc2cccc3ccccc23)cc1 | 30.3 µM |
| CCCCNC(=S)NCc1ccc2c(c1)cc(C)n2C | > 100 µM (inactive) |
| CN(C)c1ccc(/C=C/c2ccc3ccccc3[n+]2C)cc1 | 26.4 µM |
| O=C(O)CCSc1nnc(-c2ccccc2)n1-c1ccccc1 | > 100 µM (inactive) |
| c1ccc2nc3ccccc3nc2c1 | 16.8 µM |
| Oc1ccc(/C=C/c2nc(-c3ccccc3O)n(-c3ccccc3)n2)cc1 | > 100 µM (inactive) |
| c1cncc(-c2nnc(-c3cccnc3)nn2)c1 | 25.9 µM |
| O=[N+]([O-])c1ccc(O)c(/C=N/Nc2ccccn2)c1 | 31 µM |
| COc1cc(-c2nc3ccc4ccccc4c3c3c2CCC3)ccc1O | > 100 µM (inactive) |
| Cc1ccc(-c2nc(N)sc2-c2ccccc2)cc1C | > 100 µM (inactive) |
| CC1=C(C)/C(=N\OS(=O)(=O)c2ccc(C)cc2)C=CC1=O | 12.5 µM |
| Cc1cc(C)cc(NS(=O)(=O)c2cnc(Cl)c(Cl)c2)c1 | 47.5 µM |
| CCc1cccc(C)c1NC(=S)NCCc1c(C)[nH]c2ccc(C)cc12 | 41 µM |
| CC(C)c1ccc2c(c1)C1(NN=C(c3ccccc3)S1)C(=O)N2 (stereo not given) | 26.3 µM |
| CN(C)CCNC=C(C(=O)Nc1ccc(Cl)cc1Cl)C(=O)Nc1ccc(Cl)cc1Cl | 23.9 µM |
| Cc1ccc(Oc2nc(CN3CCOCC3)nc3sc4c(c23)CCC(C)C4)cc1C (stereo not given) | 26.1 µM |
| COc1ccc2nc(/N=C(\N)NC(=O)Nc3ccccc3)nc(C)c2c1 | 50.4 µM |

| Structure (SMILES) | IC50 |
| --- | --- |
| CC(C)(C)C(=O)O/N=C1/C(=O)N(c2ccccc2)c2ccccc21 | 30.6 µM |
| CCn1ncc(C2=NOC(C(=O)Nc3c(C)n(C)n(-c4ccccc4)c3=O)C2)c1C (stereo not given) | > 100 µM (inactive) |
| Fc1ccc2nc3[nH]c4ccccc4c3nc2c1 | 39.9 µM |
| Cc1ccc(O)c(-c2cc(-c3cccc(F)c3)n[nH]2)c1 | 19.3 µM |
| CCN1CCN(c2ncnc3c2sc(=S)n3-c2ccccc2)CC1 | > 100 µM (inactive) |
| Cc1ccc(C(=O)c2c(C)oc3c2C(=O)C(=O)c2ccccc2-3)cc1 | 48.1 µM |
| O=C1CSC(=S)N1c1cccnc1 | 31.9 µM |
| CCc1ccc(C2NC(=S)NC3=C2C(=O)N(c2ccccc2OC)C(c2ccc(CC)cc2)N3)cc1 (stereo not given) | > 100 µM (inactive) |
| O=c1c2sc(-c3ccccc3)cc2nc2n1CCC2 | 13.8 µM |
| CCc1cc(-c2n[nH]c(C)c2Oc2ccc(C(C)C)cc2)c(O)cc1O | 31.4 µM |
| O=C(Nc1nc(-c2ccccn2)cs1)C1COc2ccccc2O1 (stereo not given) | 12.7 µM |
| Cc1cc(C(=O)COC(=O)c2ccc[nH]c2=O)c(C)n1-c1ccccc1 | 21.3 µM |
| C(=N\c1ncnc2sccc12)/NOCc1ccccc1 | 23.2 µM |
| CNC(=O)c1cc2c(ccc3ccccc32)oc1=N | 12.4 µM |
| CC(C)(CNC(=S)NCCc1ccccc1)CNC(=S)NCCc1ccccc1 | > 100 µM (inactive) |
| Cc1ccc(-c2nnc3ccc(SC(C)C(=O)O)nn23)cc1 (stereo not given) | > 100 µM (inactive) |
| CCOC(=O)C1=Nc2ccccc2C1=[N+]=[N-] | 5.58 µM |
| O=c1oc2ccccc2c(N2CCCC2)c1CN1CCCC1 | > 100 µM (inactive) |
| O=C(COc1ccccc1)N1CCN=C1SCc1cccnc1 | > 100 µM (inactive) |
| CC(C)(C)C(O)C(Oc1ccc(Cl)cc1)n1cncn1 (stereo not given) | 3.14 µM |
| CCCn1c(C)cc(C(=O)COC(=O)c2ccc[nH]c2=O)c1C | 35.6 µM |
| O=C1C=C(c2ccc(Cl)cc2)C(=O)N1Nc1ccccc1 | 4.66 µM |
| O=c1c2ccccc2nc2c3ccccc3c3nncn3n12 | 49.9 µM |
| CCOC(=O)/C(=N\Nc1ccccc1Cl)N1CCN(Cc2ccccc2)CC1 | 17.9 µM |

| Structure (SMILES) | IC50 |
| --- | --- |
| O=C1C(=O)c2ccccc2-c2ccccc21 | 7.79 µM |
| Nc1c(C(=O)NCCc2ccccc2)c2nc3ccccc3nc2n1CCN1CCOCC1 | 22.3 µM |
| CC1(CCc2ccccc2)NC(=S)N(c2ccccc2)N1 (stereo not given) | 14.1 µM |
| Cc1ccc(NC(=O)ON=C2CCCC2)cc1 | 9.19 µM |
| Cc1nn(-c2ccccc2)c2sc(-c3n[nH]c(=S)o3)cc12 | > 100 µM (inactive) |
| CC(C)(C)c1ccc(C(=O)NC(=S)NNC(=O)c2cccs2)cc1 | 42.2 µM |
| Clc1cccc(CN2COc3c(cc(Cl)c4cccnc34)C2)c1 | 7.28 µM |
| Cc1ccc(S(=O)(=O)Nc2ccc(SC(F)F)cc2)c(C)c1 | > 100 µM (inactive) |
| Cc1ccc(-c2nc3sc(C(N)=O)c(N)c3c3c2CCCC3)cc1 | > 100 µM (inactive) |
| CCN1/C(=C/c2ccc3cccc(C)c3[n+]2CC)Sc2ccccc21 | 9.8 µM |
| CN1C(=O)c2cccc3c(Cl)ccc(c23)C1=O | > 100 µM (inactive) |
| CCn1c(=O)c(C(=O)Nc2nc3ccccc3[nH]2)c(O)c2ccccc21 | > 100 µM (inactive) |
| O=C(OCn1ncc(Br)c(Br)c1=O)c1ccc(F)cc1 | 6.92 µM |
| O=C(c1ccc(Cl)cc1)c1c[nH]c(C(=O)C(Cl)(Cl)Cl)c1 | 37.8 µM |
| O=C(O)c1cc2ccc3ccccc3c2oc1=O | 20.6 µM |
| COc1cc(C(=O)NC(=S)NNC(=O)c2cnccn2)cc(OC)c1OC | 12.8 µM |
| Oc1ccc(CN2CCCCC2)c2cccnc12 | 46.4 µM |
| O=C(O)CSc1cccc[n+]1[O-] | 33.9 µM |
| Oc1c(I)cc(I)c2cccnc12 | 23.9 µM |
| COC(=O)c1ccc(C(=O)OC)c(NC(=O)CSc2cccc[n+]2[O-])c1 | 0.822 µM |
| COc1ccc(NCc2nc3ccccc3n2CCOc2ccc(C)cc2)cc1 | 31.2 µM |
| N/C(Cc1ccc(Cl)cc1)=N\OC(=O)c1ccccc1 | 27.1 µM |
| NNC(=O)c1cccc(COc2ccc3c(c2)CCC3)c1 | 17.3 µM |
| CCCc1ccc(Oc2c(-c3ccc(O)c(C)c3O)n[nH]c2C)cc1 | 7.01 µM |

Reference: PubChem BioAssay AID849 (SRMLSC, 2007)
